According to patent US20240423914A1, “AMIDE CONTAINING LIPIDS” (Acuitas Therapeutics, Inc., priority 2023, published 2024):

Test system: human IgG in mouse serum
Experiment: Immunoglobulin G (IgG) mRNA in vivo evaluation using lipid nanoparticle compositions (human IgG ELISA of mouse serum)
Parameters: species or system CD-1/ICR mice
Conditions: lipid formulated as LNP (cationic lipid/DSPC/cholesterol/PEG lipid) with IgG mRNA, tail vein injection, mice, serum measured 24 hours after administration; for Serum IgG (ug/mL) @ 0.3 mg/kg: 0.3 mg mRNA/kg; for Serum IgG (ug/mL) @ 1.0 mg/kg: 1.0 mg mRNA/kg
Protocol: A lipid of Formula (I), DSPC, cholesterol and PEG-lipid of Formula (II) are solubilized in ethanol at a molar ratio of 50:10:38.5:1.5 or 47.5:10:40.7:1.8. Lipid nanoparticles (LNP) are prepared at a total lipid to mRNA weight ratio of approximately 10:1 to 40:1. Briefly, the mRNA is diluted to 0.2 mg/mL in 10 to 50 mM citrate buffer, pH 4 to 6 or 10 to 25 mM acetate buffer, pH 4 to 6. Syringe pumps are used to mix the ethanolic lipid solution with the mRNA aqueous solution at a ratio of about 1:5 to 1:3 (vol/vol) with total flow rates above 15 mL/min. The ethanol is then removed, and the external buffer replaced with PBS by dialysis. Finally, the lipid nanoparticles are filtered through a 0.2 μm pore sterile filter.
Studies are performed in 6-8-week-old CD-1/ICR mice (Charles River or Inotiv) according to guidelines established by an institutional animal care committee (ACC) and the Canadian Council on Animal Care (CCAC). Varying doses of mRNA-lipid nanoparticle are systemically administered by tail vein injection and animals euthanized at a specific time point (e.g., 24 hours) post-administration. The whole blood is collected, and the serum subsequentially separated by centrifuging the tubes of the whole blood at 2000×g for 10 minutes at 4° C. and stored at −80° C. until use for analysis.
For immunoglobulin G (IgG) ELISA (Life Diagnostics Human IgG ELISA kit), the serum samples are diluted at 100 to 20,000 fold with 1× diluent solution. 100 μL of diluted serum is dispensed into anti-human IgG coated 96-well plate in duplicate alongside human IgG standards and incubated in a plate shaker at 150 rpm at 25° C. for 45 minutes. The wells are washed 5 times with 1× wash solution using a plate washer (400 μL/well). 100 μL of HRP conjugate is added into each well and incubated in a plate shaker at the same condition above. The wells are washed 5 times again with 1× wash solution using a plate washer (400 μL/well). 100 μL of TMB reagent is added into each well and incubated in a plate shaker at the same condition above. The reaction is stopped by adding 100 μL of Stop solution to each well. The absorbance is read at 450 nm (A450) with a microplate reader. The amount of human IgG in mouse serum is determined by plotting A450 values for the assay standard against human IgG concentration.
Representative compounds of the disclosure shown in Table 2 were formulated using the following molar ratio: 50% cationic lipid/10% distearoylphosphatidylcholine (DSPC)/38.5% Cholesterol/1.5% PEG lipid 2-[2-(ω-methoxy(polyethyleneglycol2000)ethoxy]-N,N-ditetradecylacetamide) or 47.5% cationic lipid/10% DSPC/40.7% Cholesterol/1.8% PEG lipid. Relative activity was determined by measuring the amount of human IgG in mouse serum as described in Example 2. The activity was compared at a dose of 1.0 or 0.3 mg mRNA/kg and expressed as ng luciferase/g liver measured 4 hours after administration, as described in Example 1 or as μg IgG/mL serum measured 24 hours after administration, as described in Example 2. Compound numbers in Table 2 refer to the compound numbers of Table 1.

| SMILES | Serum IgG (ug/mL) @ 0.3 mg/kg [µg/mL] | Serum IgG (ug/mL) @ 1.0 mg/kg [µg/mL] |
| --- | --- | --- |
| CCCCCCCCCCN(CCCCCCCCCC)C(=O)CCCCCCCCC(CCCCCCCCC(=O)N(CCCCCCCCCC)CCCCCCCCCC)N(CCCCCCCCCC)C(=O)CCN(C)C [Compound I-1, N^1,N^1,N^19,N^19-tetrakis(decyl)-10-(N-decyl-3-(dimethylamino)propanamido)nonadecanediamide] | 18.5 ± 6.7 |  |
| CCCCCCCCCCN(CCCCCCCCCC)C(=O)CCCCCCCN(CCCCCCCC(=O)N(CCCCCCCCCC)CCCCCCCCCC)C(=O)C(F)CCN(C)C (stereo not shown) [Compound I-2, N,N-didecyl-8-(N-(8-(didecylamino)-8-oxooctyl)-4-(dimethylamino)-2-fluorobutanamido)octanamide] | 23.2 ± 6.1 | 69.8 ± 18.2 |
| CCCCCCCCCCN(CCCCCCCCN(CCCCCCCC(=O)N(CCCCCCCCCC)CCCCCCCCCC)C(=O)C(F)CCN(C)C)C(=O)CCCCCCCCC (stereo not shown) [Compound I-3, N-decyl-N-(8-(N-(8-(didecylamino)-8-oxooctyl)-4-(dimethylamino)-2-fluorobutanamido)octyl)decanamide] | 16.2 ± 4.3 | 52.7 ± 8.4 |
| CCCCCCCCCCN(CCCCCCCCCC)C(=O)CCCCCCCN(CCCCCCCC(=O)N(CCCCCCCCCC)CCCCCCCCCC)C(=O)CN(C)C [Compound I-4, N,N-didecyl-8-(N-(8-(didecylamino)-8-oxooctyl)-2-(dimethylamino)acetamido)octanamide] | 24.2 ± 4.5 |  |
| CCCCCCCCCCN(CCCCCCCCN(CCCCCCCC(=O)N(CCCCCCCCCC)CCCCCCCCCC)C(=O)CN(C)C)C(=O)CCCCCCCCC [Compound I-5, N-decyl-N-(8-(N-(8-(didecylamino)-8-oxooctyl)-2-(dimethylamino)acetamido)octyl)decanamide] | 25.9 ± 11.8 | 73.4 ± 14.9 |
| CCCCCCCCCCN(CCCCCCCCCC)C(=O)CCCCCCCN(CCCCCCCC(=O)N(CCCCCCCCCC)CCCCCCCCCC)C(=O)OCCN(C)C [Compound I-6, 2-(dimethylamino)ethyl bis(8-(didecylamino)-8-oxooctyl)carbamate] | 20.5 ± 4.0 | 197.5 ± 39.3 |
| CCCCCCCCCCN(CCCCCCCCCC)C(=O)CCCCCCCN(CCCCCCCC(=O)N(CCCCCCCCCC)CCCCCCCCCC)C(=O)OCCCN(C)C [Compound I-7, 3-(dimethylamino)propyl bis(8-(didecylamino)-8-oxooctyl)carbamate] | 30.8 ± 7.5 |  |
| CCCCCCCCCCN(CCCCCCCCCC)C(=O)CCCCCCCCCN(CCCCCCCCCC(=O)N(CCCCCCCCCC)CCCCCCCCCC)C(=O)OCCCN(C)C [Compound I-8, 3-(dimethylamino)propyl bis(10-(didecylamino)-10-oxodecyl)carbamate] | 10.6 ± 5.0 |  |
| CCCCCCCCCCN(CCCCCCCCCC)C(=O)CCCCCCCCC(CCCCCCCCC(=O)N(CCCCCCCCCC)CCCCCCCCCC)OC(=O)CCCCN(C)C [Compound I-9, 1,19-bis(didecylamino)-1,19-dioxononadecan-10-yl 5-(dimethylamino)pentanoate] | 13.4 ± 7.5 | 59.5 ± 25.6 |
| CCCCCCCCCCN(CCCCCCCCCC)C(=O)CCCCCCCCC(CCCCCCCCC(=O)N(CCCCCCCCCC)CCCCCCCCCC)OC(=O)CCCN(C)C [Compound I-10, 1,19-bis(didecylamino)-1,19-dioxononadecan-10-yl 4-(dimethylamino)butanoate] | 19.0 ± 3.3 |  |
| CCCCCCCCCCN(CCCCCCCCCC)C(=O)CCCCCCCCC(CCCCCCCCC(=O)N(CCCCCCCCCC)CCCCCCCCCC)N(CCCCCCCCCC)C(=O)C(F)CCCN(C)C (stereo not shown) [Compound I-12, N^1,N^1,N^19,N^19-tetrakis(decyl)-10-(n-decyl-5-(dimethylamino)-2-fluoropentanamido)nonadecanediamide] | 13.9 ± 4.7 |  |
| CCCCCCCCCCN(CCCCCCCCCC)C(=O)CCCCCCCCC(CCCCCCCCC(=O)N(CCCC)C(CCCCCCCC)CCCCCCCC)N(CCCCCCCCCC)C(=O)CCN(C)C (stereo not shown) [Compound I-17, N^1-butyl-N^19,N^19-didecyl-10-(n-decyl-3-(dimethylamino)propanamido)-N-(heptadecan-9-yl)nonadecanediamide] | 10.1 ± 4.03 |  |
| CCCCCCCCCCN(CCCCCCCCCC)C(=O)CCCCCC(CCCCCC(=O)N(CCCCCCCCCC)CCCCCCCCCC)OC(=O)CCCN(C)C [Compound I-18, 1,13-bis(didecylamino)-1,13-dioxotridecan-7-yl 4-(dimethylamino)butanoate] | 18.0 ± 2.0 |  |
| CCCCCCCCCCCCN(CCCCCCCCCCN(CCCCCCCCCCN(CCCCCCCCCCCC)C(=O)CCCCCCC)C(=O)OCCCN1CCCC1)C(=O)CCCCCCC [Compound I-20, 3-(pyrrolidin-1-yl)propyl bis(10-(n-dodecyloctanamido)decyl)carbamate] | 7.9 ± 3.6 |  |
